The values below come from patent publication US20230160018A1, “CRYBETAB2 PREDICTS POOR BREAST CANCER OUTCOME AND SENSITIZES TUMORS TO NUCLEOLIN AND CDK INHIBITION” (The Johns Hopkins University, priority 2020, published 2023).

The test concerns MCF10AT1-vector tumors. The test can be described thus: MCF10AT1-vector (CRYβB2-lacking) xenograft tumor growth in NSG mice. The format is in vivo. Conditions: palbociclib 50 mg/kg oral, 5 days/week, 2 weeks; tumors lack CRYβB2 expression.

Molecules are shown by their SMILES.

`CC(=O)c1c(C)c2cnc(Nc3ccc(N4CCNCC4)cn3)nc2n(C2CCCC2)c1=O` [palbociclib]: the tumor size result was “no effect”.
